In the experiment the target is T1, GIPR (CHO-K1-hGIPR cells) (Homo sapiens, UniProt P48546).
T1 construct: host or cells: CHO-K1
T1 sequence (P48546 22-466): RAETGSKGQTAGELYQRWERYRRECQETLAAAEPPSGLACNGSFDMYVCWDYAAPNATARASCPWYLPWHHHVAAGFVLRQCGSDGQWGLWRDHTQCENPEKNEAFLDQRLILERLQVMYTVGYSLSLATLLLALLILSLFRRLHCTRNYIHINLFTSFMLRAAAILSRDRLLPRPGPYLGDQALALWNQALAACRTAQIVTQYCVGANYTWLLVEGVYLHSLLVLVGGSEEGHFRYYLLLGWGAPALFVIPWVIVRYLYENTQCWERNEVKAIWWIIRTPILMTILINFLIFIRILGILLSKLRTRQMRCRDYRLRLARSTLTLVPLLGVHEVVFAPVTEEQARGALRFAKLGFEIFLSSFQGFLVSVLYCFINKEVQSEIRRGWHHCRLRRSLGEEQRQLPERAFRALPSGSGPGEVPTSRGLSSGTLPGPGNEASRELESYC
Briefly: FACS binding assay. The following applies: competition with 20 nM GIP-057, 4° C., 1 hour, read-out: pIC50 Category (converted). Put shortly:
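Median fluorescence in the APC channel, measured on washed CHO-K1 cells overexpressing human GIPR, was fitted by four-parameter logistic regression against peptide concentration to yield EC50 or IC50 values. Secondary labelling used APC-streptavidin (1 μg/mL, 30 min, ice).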
On the technique in general: Flow cytometry measures light scatter and fluorescence of single cells or particles in a stream.

*1 amine or outer side, *2 acyl side, *3 side chain or, on linkers, in order; H or OH if unused. Where a SMILES comes first, the peptide text is derived from it. Bridges are numbered along the chain shown (N, C = ends). [ ]: non-standard residue; d: D form. Trp(5-Cl) = N[C@@H](Cc1c[nH]c2ccc(Cl)cc12)C(=O)O; Pyridine(2,6-diCH2) = c1cc(C[*:1])nc(C[*:2])c1; mXylylene = c1cc(C[*:1])cc(C[*:2])c1; N(CH2CH2COOH)Gly = O=C(O)CCNCC(=O)O; Hyp = O=C(O)[C@@H]1C[C@@H](O)CN1; Suc = O=C(CCC(=O)[*:2])[*:1]; hCys = N[C@@H](CCS)C(=O)O; hSer = N[C@@H](CCO)C(=O)O; Ac5c = NC1(C(=O)O)CCCC1; Thp = NC1(C(=O)O)CCOCC1; Aib = CC(C)(N)C(=O)O

As to `CC[C@H](C)[C@@H]1NC(=O)[C@H](CC(C)C)NC(=O)C2(CCOCC2)NC(=O)[C@@H](NC(=O)[C@@H](CC(C)C)NC(=O)[C@H](CCC(=O)O)NC(=O)[C@@H]2C[C@@H](O)CN2C(=O)[C@H](Cc2c[nH]c3ccc(Cl)cc23)NC(=O)[C@H](Cc2c[nH]c3ccccc23)NC(=O)[C@H](CCC(=O)O)NC(C)=O)CSCc2cccc(n2)CSC[C@@H](C(N)=O)NC1=O` [GIP-191, Ac-Asn-Trp-5Clw-Hyp-Glu-leu-[Cys(2Lut)-Thp-Leu-Ile-Cys]-NH2] (Ac-EW[Trp(5-Cl)][Hyp]E[dL]C[Thp]LIC-NH2; linker 7-11 via Pyridine(2,6-diCH2)), the IC50 was under 10 nM.

In the case of `CC[C@H](C)[C@@H]1NC(=O)[C@H](CC(C)C)NC(=O)C2(CCOCC2)NC(=O)[C@@H](NC(=O)[C@@H](CC(C)C)NC(=O)[C@H](CC(=O)O)NC(=O)[C@@H]2C[C@@H](O)CN2C(=O)[C@H](Cc2c[nH]c3ccc(Cl)cc23)NC(=O)[C@H](Cc2c[nH]c3ccccc23)NC(=O)[C@H](CC(=O)O)NC(C)=O)CSCc2cccc(n2)CSC[C@@H](C(N)=O)NC1=O` [GIP-192, Ac-Asp-Trp-5Clw-Hyp-Asp-leu-[Cys(2Lut)-Thp-Leu-Ile-Cys]-NH2] (Ac-DW[Trp(5-Cl)][Hyp]D[dL]C[Thp]LIC-NH2; linker 7-11 via Pyridine(2,6-diCH2)), the IC50 is under 10 nM. On to `CC[C@H](C)[C@@H]1NC(=O)[C@H](CC(C)C)NC(=O)C2(CCOCC2)NC(=O)[C@@H](NC(=O)[C@@H](CC(C)C)NC(=O)[C@H](CCC(N)=O)NC(=O)[C@@H]2C[C@@H](O)CN2C(=O)[C@H](Cc2c[nH]c3ccc(Cl)cc23)NC(=O)[C@H](Cc2c[nH]c3ccccc23)NC(=O)[C@H](CC(=O)O)NC(C)=O)CSCc2cccc(n2)CSC[C@@H](C(N)=O)NC1=O` [GIP-193, Ac-Asp-Trp-5Clw-Hyp-Gln-leu-[Cys(2Lut)-Thp-Leu-Ile-Cys]-NH2] (Ac-DW[Trp(5-Cl)][Hyp]Q[dL]C[Thp]LIC-NH2; linker 7-11 via Pyridine(2,6-diCH2)), for which the IC50 was under 10 nM. For `CC[C@H](C)[C@@H]1NC(=O)[C@H](CC(C)C)NC(=O)C2(CCOCC2)NC(=O)[C@@H](NC(=O)[C@@H](CC(C)C)NC(=O)[C@H](CCC(=O)O)NC(=O)[C@@H]2C[C@@H](O)CN2C(=O)[C@H](Cc2c[nH]c3ccc(Cl)cc23)NC(=O)[C@H](Cc2c[nH]c3ccccc23)NC(=O)[C@H](CCO)NC(C)=O)CSCc2cccc(n2)CSC[C@@H](C(N)=O)NC1=O` [GIP-195, Ac-Hse-Trp-5Clw-Hyp-Glu-leu-[Cys(2Lut)-Thp-Leu-Ile-Cys]-NH2] (Ac-[hSer]W[Trp(5-Cl)][Hyp]E[dL]C[Thp]LIC-NH2; linker 7-11 via Pyridine(2,6-diCH2)), the IC50 was under 10 nM. With `CC[C@H](C)[C@@H]1NC(=O)[C@H](CC(C)C)NC(=O)C2(CCOCC2)NC(=O)[C@@H](NC(=O)[C@@H](CC(C)C)NC(=O)[C@H](CCC(=O)O)NC(=O)CN(CCC(=O)O)C(=O)[C@H](Cc2c[nH]c3ccc(Cl)cc23)NC(=O)[C@H](Cc2c[nH]c3ccccc23)NC(=O)[C@H](CC(=O)O)NC(C)=O)CSCc2cccc(n2)CSC[C@@H](C(N)=O)NC1=O` [GIP-196, Ac-Asp-Trp-5Clw-Nglu-Glu-leu-[Cys(2Lut)-Thp-Leu-Ile-Cys]-NH2] (Ac-DW[Trp(5-Cl)][N(CH2CH2COOH)Gly]E[dL]C[Thp]LIC-NH2; linker 7-11 via Pyridine(2,6-diCH2)), the IC50 is under 10 nM. `CC[C@H](C)[C@@H]1NC(=O)[C@H](CC(C)C)NC(=O)C(C)(C)NC(=O)[C@@H](NC(=O)[C@@H](CC(C)C)NC(=O)[C@H](CCC(=O)O)NC(=O)[C@@H]2CCCN2C(=O)[C@H](Cc2c[nH]c3ccc(Cl)cc23)NC(=O)[C@H](Cc2c[nH]c3ccccc23)NC(=O)CCC(=O)O)CSCc2cccc(c2)CSC[C@@H](C(N)=O)NC1=O` [GIP-198, HO-Succinyl-Trp-5Clw-Pro-Glu-leu-[Cys(3MeBn)-Aib-Leu-Ile-Cys]-NH2] (Suc-W[Trp(5-Cl)]PE[dL]C[Aib]LIC-NH2; linker 6-10 via mXylylene): the IC50 is under 10 nM. The same measure for `CC[C@H](C)[C@@H]1NC(=O)[C@H](CC(C)C)NC(=O)C2(CCOCC2)NC(=O)[C@@H](NC(=O)[C@@H](CC(C)C)NC(=O)[C@H](CCC(=O)O)NC(=O)[C@@H]2CCCN2C(=O)[C@H](Cc2c[nH]c3ccc(Cl)cc23)NC(=O)[C@H](Cc2c[nH]c3ccccc23)NC(=O)CCC(=O)O)CSCc2cccc(c2)CSC[C@@H](C(N)=O)NC1=O` [GIP-199] (Suc-W[Trp(5-Cl)]PE[dL]C[Thp]LIC-NH2; linker 6-10 via mXylylene): under 10 nM; for `CC[C@H](C)[C@@H]1NC(=O)[C@H](CC(C)C)NC(=O)C2(CCOCC2)NC(=O)[C@@H](NC(=O)[C@@H](CC(C)C)NC(=O)[C@H](CCC(=O)O)NC(=O)[C@@H]2C[C@@H](O)CN2C(=O)[C@H](Cc2c[nH]c3ccc(Cl)cc23)NC(=O)[C@H](Cc2c[nH]c3ccccc23)NC(=O)[C@H](CC(=O)O)NC(C)=O)CCSCc2cccc(n2)CSC[C@@H](C(N)=O)NC1=O` [GIP-200, Ac-Asp-Trp-5Clw-Hyp-Glu-leu-[Hcy(2Lut)-Thp-Leu-Ile-Cys]-NH2] (Ac-DW[Trp(5-Cl)][Hyp]E[dL][hCys][Thp]LIC-NH2; linker 7-11 via Pyridine(2,6-diCH2)): under 10 nM. The same measure for `CC[C@H](C)[C@@H]1NC(=O)[C@H](CC(C)C)NC(=O)C2(CCOCC2)NC(=O)[C@@H](NC(=O)[C@@H](CC(C)C)NC(=O)[C@H](CCC(=O)O)NC(=O)[C@@H]2C[C@@H](O)CN2C(=O)[C@H](Cc2c[nH]c3ccc(Cl)cc23)NC(=O)[C@H](Cc2c[nH]c3ccccc23)NC(=O)[C@H](CC(=O)O)NC(C)=O)CSCc2cccc(n2)CSCC[C@@H](C(N)=O)NC1=O` [GIP-201, Ac-Asp-Trp-5Clw-Hyp-Glu-leu-[Cys(2Lut)-Thp-Leu-Ile-Hcy]-NH2] (Ac-DW[Trp(5-Cl)][Hyp]E[dL]C[Thp]LI[hCys]-NH2; linker 7-11 via Pyridine(2,6-diCH2)): under 10 nM; for `CC[C@H](C)[C@@H]1NC(=O)[C@H](CC(C)C)NC(=O)C2(CCOCC2)NC(=O)[C@@H](NC(=O)[C@@H](CC(C)C)NC(=O)[C@H](CCC(=O)O)NC(=O)[C@@H]2C[C@@H](O)CN2C(=O)[C@H](Cc2c[nH]c3ccc(Cl)cc23)NC(=O)[C@H](Cc2c[nH]c3ccccc23)NC(=O)[C@H](CC(=O)O)NC(C)=O)CCSCc2cccc(n2)CSCC[C@@H](C(N)=O)NC1=O` [GIP-202, Ac-Asp-Trp-5Clw-Hyp-Glu-leu-[Hcy(2Lut)-Thp-Leu-Ile-Hcy]-NH2] (Ac-DW[Trp(5-Cl)][Hyp]E[dL][hCys][Thp]LI[hCys]-NH2; linker 7-11 via Pyridine(2,6-diCH2)): under 10 nM; for `CC[C@H](C)[C@@H]1NC(=O)[C@H](CC(C)C)NC(=O)C2(CCCC2)NC(=O)[C@@H](NC(=O)[C@@H](CC(C)C)NC(=O)[C@H](CCC(=O)O)NC(=O)[C@@H]2C[C@@H](O)CN2C(=O)[C@H](Cc2c[nH]c3ccc(Cl)cc23)NC(=O)[C@H](Cc2c[nH]c3ccccc23)NC(=O)[C@H](CC(=O)O)NC(C)=O)CSCc2cccc(n2)CSC[C@@H](C(N)=O)NC1=O` [GIP-203, Ac-Asp-Trp-5Clw-Hyp-Glu-leu-[Cys(2Lut)-Eca-Leu-Ile-Cys]-NH2] (Ac-DW[Trp(5-Cl)][Hyp]E[dL]C[Ac5c]LIC-NH2; linker 7-11 via Pyridine(2,6-diCH2)): under 10 nM.

For the origin of these results see US20250296971A1, “GASTRIC INHIBITORY PEPTIDE RECEPTOR LIGANDS” (priority 2021, published 2025).
